This assay relates to kynurenine production in IFN-γ-treated KATO-III cells. Briefly: Inhibitory activity on kynurenine production (Test Example 1). In kind it is cell-based. To be noted: Homo sapiens, IFN-γ treatment, culture for 96 hours, read-out: IC50 value, inhibition of kynurenine production. The essentials:
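Read-out is absorbance at 480 nm of medium treated with trichloroacetic acid, then p-dimethylaminobenzaldehyde, to quantify kynurenine. DMSO-only wells with and without IFN-γ serve as references. Cells were KATO-III, 2,000 per well, 96 h at 37 °C/5% CO2 with compound (DMSO ≤0.1%) and IFN-γ at 31.25 ng/mL in the added suspension.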

For the compound `CCCS(=O)(=O)Nc1nc2ccccc2nc1OC(c1cccc(C#N)c1)C(F)(F)F` (centres unmarked) [Compound 290, N-{3-[1-(3-cyanophenyl)-2,2,2-trifluoroethoxy]quinoxalin-2-yl}propane-1-sulfonamide], the IC50 is under 1 µM.
Next, `O=S(=O)(Nc1nc2ccccc2nc1OC(c1cccnc1)C(F)(F)C(F)(F)F)c1cccc(Cl)c1Cl` (centres unmarked) [Compound 46, 2,3-dichloro-N-{3-[3,3,3,2,2-pentafluoro-1-(pyridin-3-yl)-propoxy]quinoxalin-2-yl}benzenesulfonamide]: under 1 µM.
With `O=S(=O)(Nc1nc2ccccc2nc1OC(c1ccc(Cl)nc1)C(F)(F)F)NC1CC1` (centres unmarked) [Compound 288, N-{3-[1-(6-chloropyridin-3-yl)-2,2,2-trifluoroethoxy]-quinoxalin-2-yl}-N′-cyclopropyl-sulfuric diamide], the IC50 is under 1 µM.
The value for `CCCS(=O)(=O)Nc1nc2ccccc2nc1OC(C(F)(F)F)C1(OC)CCOCC1` (centres unmarked) [Compound 353, N-{3-[2,2,2-trifluoro-1-(4-methoxytetrahydro-2H-pyran-4-yl)ethoxy]quinoxalin-2-yl}propane-1-sulfonamide] was under 1 µM.
Turning to `CC1(COc2nc3ccccc3nc2NS(=O)(=O)c2ccccc2Cl)CCOCC1` [Compound 246, 2-chloro-N-{3-[(4-methyltetrahydro-2H-pyran-4-yl)methoxy]-quinoxalin-2-yl}benzenesulfonamide], the IC50 was under 1 µM.
The value for `CCCS(=O)(=O)Nc1nc2ccccc2nc1OC(C1CCN(S(C)(=O)=O)CC1)C(F)(F)F` (centres unmarked) [Compound 336, N-{3-[2,2,2-trifluoro-1-(1-methanesulfonylpiperidin-4-yl)-ethoxy]quinoxalin-2-yl}propane-1-sulfonamide] was under 1 µM; that for `CCCNS(=O)(=O)Nc1nc2ccccc2nc1O[C@H](c1cccnc1)C(F)(F)F` [Compound 314, (R)—N-propyl-N′-{3-[2,2,2-trifluoro-1-(pyridin-3-yl)-ethoxy]quinoxalin-2-yl}sulfuric diamide] was under 1 µM.
Regarding `Cc1cc(S(=O)(=O)Nc2nc3ccccc3nc2OC(c2cccnc2)C(F)(F)F)c(C(F)(F)F)o1` (centres unmarked) [Compound 143, 5-methyl-N-{3-[2,2,2-trifluoro-1-(pyridin-3-yl)ethoxy]-quinoxalin-2-yl}-2-(trifluoromethyl)furan-3-sulfonamide], the IC50 was under 1 µM.
Next, `CCCS(=O)(=O)Nc1nc2ccccc2nc1O[C@H](c1cnc(C)s1)C(F)(F)F` [Compound 342, (S)—N-{3-[2,2,2-trifluoro-1-(2-methylthiazol-5-yl)ethoxy]-quinoxalin-2-yl}propane-1-sulfonamide]: under 1 µM; `CC(C)(COc1nc2ccccc2nc1NS(=O)(=O)c1ccccc1Cl)c1cccnc1` [Compound 167, 2-chloro-N-{3-[2-methyl-2-(pyridin-3-yl)propoxy]quinoxalin-2-yl}benzenesulfonamide]: under 1 µM; `CCCS(=O)(=O)Nc1nc2ccccc2nc1OC(c1ccc(C#N)cc1)C(F)(F)F` (centres unmarked) [Compound 202, N-{3-[1-(4-cyanophenyl)-2,2,2-trifluoroethoxy]quinoxalin-2-yl}propane-1-sulfonamide]: under 1 µM.
Next, `O=S(=O)(Nc1nc2ccccc2nc1OCc1ccc2ccccc2c1)c1cccc(C(F)(F)F)c1` [Compound 22, 3-(trifluoromethyl)-N-{3-[(2-naphthyl)methoxy]quinoxalin-2-yl}benzenesulfonamide]: under 1 µM; `Cc1ncsc1C(Oc1nc2ccccc2nc1NS(=O)(=O)c1ccccc1Cl)C(F)(F)F` (centres unmarked) [Compound 107, 2-chloro-N-{3-[2,2,2-trifluoro-1-(4-methylthiazol-5-yl)-ethoxy]quinoxalin-2-yl}benzenesulfonamide]: under 1 µM; `Cc1nn(C)c(Cl)c1S(=O)(=O)Nc1nc2ccccc2nc1OC(c1ccccc1)C(F)(F)F` (centres unmarked) [Compound 184, 5-chloro-1,3-dimethyl-N-[3-(2,2,2-trifluoro-1-phenyl-ethoxy)quinoxalin-2-yl]-1H-pyrazole-4-sulfonamide]: under 1 µM.
The value for `Cc1noc(C)c1S(=O)(=O)Nc1nc2ccccc2nc1OC(C1CCOCC1)C(F)(F)F` (centres unmarked) [Compound 119, 3,5-dimethyl-N-{3-[2,2,2-trifluoro-1-(tetrahydro-2H-pyran-4-yl)ethoxy]quinoxalin-2-yl}isoxazole-4-sulfonamide] was under 1 µM; that for `CCCS(=O)(=O)Nc1nc2ccccc2nc1OC(c1cc2ccccc2n1C)C(F)(F)F` (centres unmarked) [Compound 135, N-{3-[2,2,2-trifluoro-1-(1-methyl-1H-indol-2-yl)ethoxy]-quinoxalin-2-yl}propane-1-sulfonamide] was under 1 µM; that for `Cc1cc2nc(NS(=O)(=O)c3ccccc3Cl)c(OC(c3cccnc3)C(F)(F)F)nc2cc1C` (centres unmarked) [Compound 260, 2-chloro-N-{6,7-dimethyl-3-[2,2,2-trifluoro-1-(pyridin-3-yl)ethoxy]quinoxalin-2-yl}benzenesulfonamide] was 1 to 10 µM.
For `CCCS(=O)(=O)Nc1nc2ccccc2nc1OC(c1ccc(C)nc1)C(F)(F)F` (centres unmarked) [Compound 192, N-{3-[2,2,2-trifluoro-1-(6-methylpyridin-3-yl)ethoxy]-quinoxalin-2-yl}propane-1-sulfonamide], the IC50 is under 1 µM.
The value for `CC(C)(C)C(Oc1nc2ccccc2nc1NS(=O)(=O)c1cccc(Cl)c1Cl)c1cccnc1` (centres unmarked) [Compound 37, 2,3-dichloro-N-{3-[2,2-dimethyl-1-(pyridin-3-yl)propoxy]-quinoxalin-2-yl}benzenesulfonamide] was under 1 µM.
The value for `CC1(C(Oc2nc3ccccc3nc2NS(=O)(=O)c2ccccc2Cl)C(F)(F)F)CCOCC1` (centres unmarked) [Compound 121, 2-chloro-N-{3-[2,2,2-trifluoro-1-(4-methyltetrahydro-2H-pyran-4-yl]ethoxy}quinoxalin-2-yl)benzenesulfonamide] was under 1 µM; that for `CCCS(=O)(=O)Nc1nc2ccccc2nc1O[C@H](c1cccc(C#N)c1)C(F)(F)F` [Compound 349, (R)—N-{3-[2,2,2-trifluoro-1-(3-cyanophenyl)ethoxy]-quinoxalin-2-yl}propane-1-sulfonamide] was under 1 µM; that for `CCCNS(=O)(=O)Nc1nc2ccccc2nc1OC(c1cccnc1)C(C)C` (centres unmarked) [Compound 213, N-{3-[2-methyl-1-(pyridin-3-yl)propoxy]quinoxalin-2-yl}-N′-propyl-sulfuric diamide] was under 1 µM.
The value for `CCCS(=O)(=O)Nc1nc2ccccc2nc1OC(c1ccc(Cl)cc1)C(F)(F)F` (centres unmarked) [Compound 302, N-{3-[1-(4-chlorophenyl)-2,2,2-trifluoroethoxy]quinoxalin-2-yl}propane-1-sulfonamide] was under 1 µM.
`CCCS(=O)(=O)Nc1nc2ccccc2nc1OC(C1CCN(C(=O)CC)CC1)C(F)(F)F` (centres unmarked) [Compound 340, N-{3-[2,2,2-trifluoro-1-(1-propionylpiperidin-4-yl)ethoxy]-quinoxalin-2-yl}propane-1-sulfonamide]: the IC50 is under 1 µM.
The value for `O=S(=O)(Nc1nc2ccccc2nc1OC(c1ccc(Br)nc1)C(F)(F)F)c1ccccc1Cl` (centres unmarked) [Compound 86, 2-chloro-N-{3-[2,2,2-trifluoro-1-(6-bromopyridin-3-yl)-ethoxy]quinoxalin-2-yl}benzenesulfonamide] was under 1 µM.
Regarding `Cc1ncc(C(Oc2nc3ccccc3nc2NS(=O)(=O)c2ccccc2Cl)C(F)(F)F)n1C` (centres unmarked) [Compound 115, 2-chloro-N-{3-[2,2,2-trifluoro-1-(1,2-dimethyl-1H-imidazol-5-yl)ethoxy]quinoxalin-2-yl}benzenesulfonamide], the IC50 was under 1 µM.
As to `CCOCC(C)Oc1nc2ccccc2nc1NS(=O)(=O)c1ccccc1Cl` (centres unmarked) [Compound 232, 2-chloro-N-[3-(1-ethoxypropan-2-yloxy)quinoxalin-2-yl]-benzenesulfonamide], the IC50 lay in the range of 1 to 10 µM.
Next, `O=S(=O)(Nc1nc2ccccc2nc1OCc1ccc2ccccc2c1)c1ccc(Cl)cc1Cl` [Compound 29, 2,4-dichloro-N-{3-[(2-naphthyl)methoxy]quinoxalin-2-yl}-benzenesulfonamide]: under 1 µM.
The value for `O=S(=O)(Nc1ncc(Cl)nc1OCc1ccc2ccccc2c1)c1cccc(Cl)c1Cl` [Compound 3] was 1 to 10 µM.
Next, `CC(C)C(Oc1nc2ccccc2nc1NS(=O)(=O)c1cccc(Cl)c1Cl)C(C)C` [Compound 226, 2,3-dichloro-N-[3-(2,4-dimethylpentan-3-yloxy)quinoxalin-2-yl]benzenesulfonamide]: under 1 µM; `O=S(=O)(Nc1nc2ccccc2nc1OC(c1cccnc1)C(F)(F)F)c1ccccc1` (centres unmarked) [Compound 137, N-{3-[2,2,2-trifluoro-1-(pyridin-3-yl)ethoxy]quinoxalin-2-yl}benzenesulfonamide]: under 1 µM.
For the compound `O=S(=O)(Cc1ccccc1)Nc1nc2ccccc2nc1OC(c1cccnc1)C(F)(F)F` (centres unmarked) [Compound 147, 1-phenyl-N-{3-[2,2,2-trifluoro-1-(pyridin-3-yl)ethoxy]-quinoxalin-2-yl}methanesulfonamide], the IC50 is under 1 µM.
Regarding `Cc1cccc2nc(NS(=O)(=O)c3ccccc3Cl)c(OC(c3cccnc3)C(F)(F)F)nc12` (centres unmarked) [Compound 266, 2-chloro-N-{5-methyl-3-[2,2,2-trifluoro-1-(pyridin-3-yl)-ethoxy]quinoxalin-2-yl}benzenesulfonamide], the IC50 is under 1 µM.
For `CCCS(=O)(=O)Nc1nc2ccccc2nc1OC(C(F)(F)F)C1(O)CCOCC1` (centres unmarked) [Compound 352, N-{3-[2,2,2-trifluoro-1-(4-hydroxytetrahydro-2H-pyran-4-yl)ethoxy]quinoxalin-2-yl}propane-1-sulfonamide], the IC50 lay within 1 to 10 µM.
Consider `CC1(COc2nc3ccccc3nc2NS(=O)(=O)c2ccccc2Cl)COCOC1` [Compound 251, 2-chloro-N-{3-[(5-methyl-1,3-dioxan-5-yl)methoxy]-quinoxalin-2-yl}benzenesulfonamide], for which the IC50 lay within 1 to 10 µM.

The record behind these values is patent US8673908B2, “Kynurenine production inhibitor” (Kyowa Hakko Kirin Co., Ltd., priority 2008, dated 2014).
